Source: patent US20090176759A1, “LEUKEMIC STEM CELL ABLATION” (ChemGenex Pharmaceuticals, Inc., priority 2007, published 2009)

Tests used:
[1] = test system: T315I mutated BCR-ABL transcripts; assay: Peripheral blood BCR-ABL transcript levels by qRT-PCR and KD mutation analyses during omacetaxine therapy; assay type: in vivo, human
Description: Presence of T315I is confirmed at study entry at one of two reference labs (University of Texas MD Anderson Cancer Center or University of Heidelberg, Medizinische Fakultat Mannheim).
Peripheral blood BCR-ABL transcript levels are determined during omacetaxine therapy by quantitative real-time polymerase chain reaction (qRT-PCR) and BCR-ABL KD mutation analyses.

BCR-ABL-induced B-ALL = assay: Mice with BCR-ABL-induced B-ALL treated with HHT; assay type: in vivo
Description: FIG. 4A is a FACS analysis evaluation of the leukemic process in HHT or placebo treated B-ALL mice after 4 days or 10 days.
Antibodies for Western Blot analysis against c-ABL, Mcl-1 and β-actin were purchased from Santa Cruz Biothechology (Santa Cruz, Calif.). Protein lysates were prepared by lysing cells in RIPA buffer and immunoprecipitation. The retroviral vector MSCV-IRES-eGFP carrying the BCR-ABL cDNA was used to make virus stock for bone marrow transduction/transplantation. Four- to 10-week-old wild-type BABL/c or C57BL/6 (The Jackson Laboratory) and homozygous SRC triple gene knockout (Lyn−/−Hck−/−Fgr−/−) mice were used for leukemogenesis experiments. HHT (ChemGenex Pharmaceuticals, Inc, CA) was dissolved in accompanying diluent to a stock concentration of 1 mg/ml. Further dilutions were made to working concentrations using media or water.

[2] = test system: leukemia stem cells (GFP+Lin− c-Kit+Sca-1+); assay: Bone marrow cells from CML mice cultured in vitro with HHT, FACS analysis of leukemia stem cells; assay type: cell-based
Description: (§1) FIG. 5A is a FACS analysis of bone marrow cells isolated from mice with BCR-ABL-WT-induced CML were cultured in vitro (5×10^6 cells/6 cm tissue culture plate) in the presence of different doses of HHT for 6 days (changing the stem cell medium containing placebo or HHT at day 3) followed by FACS analysis of leukemia stem cells (GFP+Lin− c-Kit+Sca-1+). FIG. 5B depicts bar graphs for the leukemic cells and leukemic stem cells. […] Bone marrow cells were isolated from the treated CML mice, and leukemia stem cells were analyzed by FACS. The numbers of cells represent total leukemia stem cells in average from femur and tibia of each treated CML mouse.
FIG. 5A is a FACS analysis of bone marrow cells isolated from mice with BCR-ABL-WT-induced CML that were cultured in vitro (5×10^6 cells/6 cm tissue culture plate) in the presence of different doses of HHT for 6 days (changing the stem cell medium containing placebo or HHT at day 3) followed by FACS analysis of leukemia stem cells (GFP+ Lin− c-Kit+Sca-1+). FIG. 5B depicts bar graphs for the leukemic cells and leukemic stem cells.

[3] = Phase 2/3 study of subcutaneous omacetaxine, safety and tolerability; assay type: in vivo, human
Description: A multicenter open-label phase 2/3 study evaluating safety and efficacy of omacetaxine administered subcutaneously (SC) in patients with IM-resistant T315I+CML in all phases of the disease is being conducted.
Induction phase—1.25 mg/m2 twice daily SC for 14 consecutive days every 28 days until complete hematologic response (CHR) or hematologic improvement has been achieved.
Maintenance therapy—1.25 mg/m2 twice daily SC for 7 days every 28 days for up to 24 months.
Doses were adjusted to maintain adequate WBC and platelet control by increasing or decreasing the number of days of administration of omacetaxine.
Includes all events considered related, probably related, possibly related, or with unknown relationship to omacetaxine treatment. Events listed in the table are included if occurrence was >5% of the total population (at least 1 of 23 patients).

[4] = test system: leukemia stem cells of mice with BCR-ABL-WT-induced CML; assay: Leukemic cells and leukemia stem cells in bone marrow of treated CML mice, FACS; assay type: in vivo; details: HHT 0.5 mg/kg once every day, imatinib 100 mg/kg twice a day, by gavage, 4 days beginning at day 8 after transplantation
Description: as §1
Bone marrow cells were isolated from the treated CML mice, and leukemia stem cells were analyzed by FACS. The numbers of cells represent total leukemia stem cells in average from femur and tibia of each treated CML mouse.

[5] = in vitro, different doses of HHT for 6 days

SMILES: COC(=O)C[C@](O)(CCCC(C)(C)O)C(=O)O[C@@H]1C(OC)=C[C@]23CCCN2CCc2cc4c(cc2[C@H]13)OCO4 [HHT, Homoharringtonine]
- evaluable patients with T315I mutated BCR-ABL transcripts reduced below the detection level ([1]; 5/13 evaluable patients): 38%
- T315I mutated clone ([1]; CP patients (FIG. 8)): rapidly and substantially reduced
- patients in whom the T315I clone is reduced to below the limits of detection ([1]; chronic phase patients (FIG. 8)): 64%
- T315I clone ([1]; heavily-pretreated patients with IM-resistant T315I+CML): complete elimination of the T315I clone in a number of heavily-pretreated patients
- leukemic cells (FACS) (BCR-ABL-induced B-ALL; B-ALL mice after 4 days or 10 days, HHT vs placebo): significant reduction in leukemic cells as a function of treatment time and HHT dosage
- survival (BCR-ABL-induced B-ALL; B-ALL mice, HHT 1 mg/kg): prolonged survival
- proliferation of BCR-ABL-expressing leukemic stem cells [2]: inhibits the proliferation
- number of leukemic cells [2, 5]: reduces
- number of leukemic stem cells [2, 5]: reduces
- Treatment-Related Serious Adverse Events: Neutropenic Fever ([3]; Accelerated Phase): 1 (9) Number (percent)
- Treatment-Related Serious Adverse Events: Thrombocytopenia ([3]; Accelerated Phase): 0 Number (percent)
- Grade 3/4 Toxicities: Anemia ([3]; Accelerated Phase, N = 5): 2 (40) number (percent)
- Grade 3/4 Toxicities: Diarrhea ([3]; Accelerated Phase, N = 5): 1 (20) number (percent)
- Grade 3/4 Toxicities: Febrile neutropenia ([3]; Accelerated Phase, N = 5): 2 (40) number (percent)
- Grade 3/4 Toxicities: Neutropenia ([3]; Accelerated Phase, N = 5): 2 (40) number (percent)
- Grade 3/4 Toxicities: Pancytopenia ([3]; Accelerated Phase, N = 5): 2 (40) number (percent)
- Grade 3/4 Toxicities: Thrombocytopenia ([3]; Accelerated Phase, N = 5): 3 (60) number (percent)
- Treatment-Related Serious Adverse Events: Acute Coronary Syndrome* ([3]; Accelerated Phase, N = 6): 0 Number (percent)
- Deaths on study ([3]; BP patients with progressive disease, none considered related to the study drug): 3 deaths
- Grade 3/4 Toxicities: Anemia ([3]; Blast Phase, N = 6): 1 (17) number (percent)
- Grade 3/4 Toxicities: Diarrhea ([3]; Blast Phase, N = 6): 1 (17) number (percent)
- Grade 3/4 Toxicities: Febrile neutropenia ([3]; Blast Phase, N = 6): 2 (40) number (percent)
- Grade 3/4 Toxicities: Neutropenia ([3]; Blast Phase, N = 6): 2 (33) number (percent)
- Grade 3/4 Toxicities: Pancytopenia ([3]; Blast Phase, N = 6): 0 number (percent)
- Grade 3/4 Toxicities: Thrombocytopenia ([3]; Blast Phase, N = 6): 1 (17) number (percent)
- Treatment-Related Serious Adverse Events: Acute Coronary Syndrome* ([3]; Blast Phase, N = 6): 0 Number (percent)
- Treatment-Related Serious Adverse Events: Neutropenic Fever ([3]; Blast Phase, N = 6): 1 (9) Number (percent)
- Treatment-Related Serious Adverse Events: Thrombocytopenia ([3]; Blast Phase, N = 6): 0 Number (percent)
- Grade 3/4 Toxicities: Anemia ([3]; Chronic Phase, N = 12): 7 (58) number (percent)
- Grade 3/4 Toxicities: Diarrhea ([3]; Chronic Phase, N = 12): 2 (17) number (percent)
- Grade 3/4 Toxicities: Febrile neutropenia ([3]; Chronic Phase, N = 12): 1 (9) number (percent)
- Grade 3/4 Toxicities: Neutropenia ([3]; Chronic Phase, N = 12): 6 (50) number (percent)
- Grade 3/4 Toxicities: Pancytopenia ([3]; Chronic Phase, N = 12): 1 (9) number (percent)
- Grade 3/4 Toxicities: Thrombocytopenia ([3]; Chronic Phase, N = 12): 8 (67) number (percent)
- Treatment-Related Serious Adverse Events: Neutropenic Fever ([3]; Chronic Phase, N = 12): 1 (9) Number (percent)
- Treatment-Related Serious Adverse Events: Thrombocytopenia ([3]; Chronic Phase, N = 12): 1 (9) Number (percent)
- Treatment-Related Serious Adverse Events: Acute Coronary Syndrome* ([3]; Chronic Phase, N = 12, considered secondary to omacetaxine induced anemia): 1 (9) Number (percent)
- Grade 3/4 Toxicities: Anemia ([3]; Total, N = 23): 10 (43) number (percent)
- Grade 3/4 Toxicities: Diarrhea ([3]; Total, N = 23): 4 (17) number (percent)
- Grade 3/4 Toxicities: Febrile neutropenia ([3]; Total, N = 23): 5 (22) number (percent)
- Grade 3/4 Toxicities: Neutropenia ([3]; Total, N = 23): 10 (43) number (percent)
- Grade 3/4 Toxicities: Pancytopenia ([3]; Total, N = 23): 3 (13) number (percent)
- Grade 3/4 Toxicities: Thrombocytopenia ([3]; Total, N = 23): 12 (52) number (percent)
- Treatment-Related Serious Adverse Events: Acute Coronary Syndrome* ([3]; Total, N = 23): 1 (4) Number (percent)
- Treatment-Related Serious Adverse Events: Neutropenic Fever ([3]; Total, N = 23): 3 (13) Number (percent)
- Treatment-Related Serious Adverse Events: Thrombocytopenia ([3]; Total, N = 23): 1 (4) Number (percent)
- Grade 1/2 injection site erythema, patients ([3]; number (%) of patients): 6 (23%)
- Grade 1/2 injection site pain, patients ([3]; number (%) of patients): 3 (13%)
- Dose delays ([3]; of induction cycles): 75%
- Dose delays ([3]; of maintenance cycles): 80%
- myelosuppression (most common side effect) ([3]; subcutaneously administered): usually transient and reversible, and rarely results in serious clinical complications
- tolerability ([3]; subcutaneously administered): generally well tolerated
- number of leukemic cells in bone marrow [4]: reduces
- number of leukemic stem cells in bone marrow (femur and tibia) [4]: reduces
